Legend:
Klebsiella pneumoniae [1] = test: Antibacterial activity against Klebsiella pneumoniae ATCC 16381 assessed as reduction in bacterial growth incubated for 18 hrs by broth microdilution assay; type: functional
Pseudomonas aeruginosa [2] = test: Antibacterial activity against Pseudomonas aeruginosa 114228 assessed as fractional inhibitory concentration index in presence of doxycycline incubated for 18 hrs by broth microdilution assay; type: functional
Enterobacter cloacae [3] = test: Antibacterial activity against Enterobacter cloacae ATCC 117029 assessed as fractional inhibitory concentration index in presence of chloramphenicol incubated for 18 hrs by broth microdilution assay; type: functional
HepG2 = test: Cytotoxicity against human HepG2 cells assessed as cell viability at 50 uM incubated for 48 hrs in presence of chloramphenicol by prestoblue assay; type: cell-based; conditions: hepg2, 48 h
Pseudomonas aeruginosa [4] = test: Antibacterial activity against Pseudomonas aeruginosa 114228 assessed as fractional inhibitory concentration index incubated for 18 hrs in presence of minocycline by broth microdilution assay; type: functional
Escherichia coli [5] = test: Antibacterial activity against Escherichia coli ATCC 25922 assessed as potentiation of doxycycline-induced antibacterial activity by measuring doxycycline MIC at 10 uM incubated for 18 hrs in presence of doxycycline by broth microdilution assay (reference value: 0.5 ug/ml); type: functional
Pseudomonas aeruginosa [6] = test: Antibacterial activity against Pseudomonas aeruginosa 260-97103 assessed as fractional inhibitory concentration index incubated for 18 hrs in presence of minocycline by broth microdilution assay; type: functional
[7] = Toxicity in Galleria mellonella larvae assessed as larval survival at 100 mg/kg measured after 96 hrs; type: organism-based; conditions: in vivo
Pseudomonas aeruginosa [8] = test: Potentiation of chloramphenicol-induced antibacterial activity against wild type Pseudomonas aeruginosa PAO1 assessed as fold change in chloramphenicol MIC at <=9.8 uM incubated for 18 hrs in presence of chloramphenicol by broth microdilution assay; type: functional; conditions: dose microM <=9.8
Pseudomonas aeruginosa [9] = test: Antibacterial activity against Pseudomonas aeruginosa 262-101856 assessed as fractional inhibitory concentration index incubated for 18 hrs in presence of minocycline by broth microdilution assay; type: functional
Acinetobacter baumannii [10] = test: Antibacterial activity against Acinetobacter baumannii ATCC 17978 assessed as potentiation of doxycycline-induced antibacterial activity by measuring doxycycline MIC at 10 uM incubated for 18 hrs in presence of doxycycline by broth microdilution assay (reference value: 0.25 ug/ml); type: functional
Pseudomonas aeruginosa [11] = test: Potentiation of chloramphenicol-induced antibacterial activity against Pseudomonas aeruginosa 260-97103 incubated for 18 hrs in presence of chloramphenicol by broth microdilution assay; type: functional, organism-based; conditions: dose 1-32 µg/ml
Acinetobacter baumannii [12] = test: Antibacterial activity against Acinetobacter baumannii ATCC 17978 assessed as fractional inhibitory concentration index in presence of chloramphenicol incubated for 18 hrs by broth microdilution assay; type: functional
Acinetobacter baumannii [13] = test: Antibacterial activity against Acinetobacter baumannii ATCC 17978 assessed as fractional inhibitory concentration index in presence of doxycycline incubated for 18 hrs by broth microdilution assay; type: functional
Klebsiella pneumoniae [14] = test: Antibacterial activity against Klebsiella pneumoniae ATCC 16381 assessed as fractional inhibitory concentration index in presence of chloramphenicol incubated for 18 hrs by broth microdilution assay; type: functional
Escherichia coli [15] = test: Antibacterial activity against Escherichia coli ATCC 25922 assessed as fractional inhibitory concentration index in presence of chloramphenicol incubated for 18 hrs by broth microdilution assay; type: functional
Pseudomonas aeruginosa [16] = test: Potentiation of chloramphenicol-induced antibacterial activity against Pseudomonas aeruginosa 264-101354 incubated for 18 hrs in presence of chloramphenicol by broth microdilution assay; type: functional, organism-based; conditions: dose 1-32 µg/ml
Pseudomonas aeruginosa [17] = test: Antibacterial activity against Pseudomonas aeruginosa 262-101856 assessed as fractional inhibitory concentration incubated for 18 hrs in presence of rifampicin by broth microdilution assay; type: functional
Pseudomonas aeruginosa [18] = test: Antibacterial activity against Pseudomonas aeruginosa 264-101354 assessed as fractional inhibitory concentration index incubated for 18 hrs in presence of minocycline by broth microdilution assay; type: functional
Acinetobacter baumannii [19] = test: Antibacterial activity against Acinetobacter baumannii ATCC 17978 assessed as potentiation of chloramphenicol-induced antibacterial activity by measuring chloramphenicol MIC at 10 uM incubated for 18 hrs in presence of chloramphenicol by broth microdilution assay (reference value: 64 ug/ml); type: functional
Klebsiella pneumoniae [20] = test: Antibacterial activity against Klebsiella pneumoniae ATCC 16381 assessed as potentiation of chloramphenicol-induced antibacterial activity by measuring chloramphenicol MIC at 10 uM incubated for 18 hrs in presence of chloramphenicol by broth microdilution assay (reference value: 1024 ug/ml); type: functional
Pseudomonas aeruginosa [21] = test: Antibacterial activity against Pseudomonas aeruginosa 101243 assessed as fractional inhibitory concentration incubated for 18 hrs in presence of chloramphenicol by broth microdilution assay; type: functional
Pseudomonas aeruginosa [22] = test: Antibacterial activity against Pseudomonas aeruginosa 262-101856 assessed as fractional inhibitory concentration incubated for 18 hrs in presence of chloramphenicol by broth microdilution assay; type: functional
Pseudomonas aeruginosa [23] = test: Antibacterial activity against Pseudomonas aeruginosa 100036 assessed as fractional inhibitory concentration incubated for 18 hrs in presence of chloramphenicol by broth microdilution assay; type: functional
Pseudomonas aeruginosa [24] = test: Antibacterial activity against Pseudomonas aeruginosa 264-101354 assessed as fractional inhibitory concentration incubated for 18 hrs in presence of chloramphenicol by broth microdilution assay; type: functional
Pseudomonas aeruginosa [25] = test: Antibacterial activity against Pseudomonas aeruginosa 264-101354 assessed as reduction in bacterial growth by measuring doxycycline MIC at 8 ug/ml incubated for 18 hrs in presence of doxycycline by broth microdilution assay (reference value: 64 ug/ml); type: functional; conditions: dose 8 µg/ml
Pseudomonas aeruginosa [26] = test: Antibacterial activity against Pseudomonas aeruginosa 101243 assessed as fractional inhibitory concentration incubated for 18 hrs in presence of doxycycline by broth microdilution assay; type: functional
Pseudomonas aeruginosa [27] = test: Antibacterial activity against Pseudomonas aeruginosa 100036 assessed as fractional inhibitory concentration incubated for 18 hrs in presence of doxycycline by broth microdilution assay; type: functional
Pseudomonas aeruginosa [28] = test: Antibacterial activity against Pseudomonas aeruginosa 91433 assessed as fractional inhibitory concentration in presence of chloramphenicol incubated for 18 hrs by broth microdilution assay; type: functional
Pseudomonas aeruginosa [29] = test: Antibacterial activity against Pseudomonas aeruginosa 259-96918 assessed as reduction in bacterial growth by measuring doxycycline MIC at 2 ug/ml incubated for 18 hrs in presence of doxycycline by broth microdilution assay (reference value: 32 ug/ml); type: functional; conditions: dose 2 µg/ml
Pseudomonas aeruginosa [30] = test: Antibacterial activity against Pseudomonas aeruginosa 262-101856 assessed as reduction in bacterial growth by measuring chloramphenicol MIC at 16 ug/ml incubated for 18 hrs in presence of chloramphenicol by broth microdilution assay (reference value: 2048 ug/ml); type: functional; conditions: dose 16 µg/ml
Pseudomonas aeruginosa [31] = test: Antibacterial activity against Pseudomonas aeruginosa 260-97103 assessed as reduction in bacterial growth by measuring doxycycline MIC at 2 ug/ml incubated for 18 hrs in presence of doxycycline by broth microdilution assay (reference value: 16 ug/ml); type: functional; conditions: dose 2 µg/ml
Enterobacter cloacae [32] = test: Potentiation of chloramphenicol-induced antibacterial activity against Enterobacter cloacae ATCC 117029 assessed as fold change in chloramphenicol MIC at 7.6 uM incubated for 18 hrs in presence of chloramphenicol by broth microdilution assay relative to control; type: functional
Klebsiella pneumoniae [33] = test: Potentiation of doxycycline-induced antibacterial activity against Klebsiella pneumoniae ATCC 16381 assessed as fold change in doxycycline MIC at 7.6 uM incubated for 18 hrs in presence of doxycycline by broth microdilution assay relative to control; type: functional

| Structure (SMILES) | MIC (Klebsiella pneumoniae [1]) | fractional inhibitory concentration index (FICI) (Pseudomonas aeruginosa [2]) | fractional inhibitory concentration index (FICI) (Enterobacter cloacae [3]) | MIC (Escherichia coli [5]) | MIC (Acinetobacter baumannii [10]) | Activity (Pseudomonas aeruginosa [11]) | fractional inhibitory concentration index (FICI) (Acinetobacter baumannii [12]) | fractional inhibitory concentration index (FICI) (Acinetobacter baumannii [13]) | fractional inhibitory concentration index (FICI) (Klebsiella pneumoniae [14]) | fractional inhibitory concentration index (FICI) (Escherichia coli [15]) | Activity (Pseudomonas aeruginosa [16]) | MIC (Acinetobacter baumannii [19]) | MIC (Klebsiella pneumoniae [20]) | FIC (Pseudomonas aeruginosa [21]) | FIC (Pseudomonas aeruginosa [22]) | FIC (Pseudomonas aeruginosa [23]) | FIC (Pseudomonas aeruginosa [24]) | FIC (Pseudomonas aeruginosa [26]) | FIC (Pseudomonas aeruginosa [27]) | also measured |
| --- | --- | --- | --- | --- | --- | --- | --- | --- | --- | --- | --- | --- | --- | --- | --- | --- | --- | --- | --- | --- |
| CO[C@H]1/C=C/O[C@@]2(C)Oc3c(C)c(O)c4c(O)c(c(/C=N/N5CCN(Cc6cn(CCCCCCO[C@@H]7[C@@H](O[C@H]8O[C@H](CO)[C@@H](O)[C@H](N)[C@H]8O)[C@H](N)C[C@H](N)[C@H]7O[C@H]7O[C@H](CN)[C@@H](O)C[C@H]7N)nn6)CC5)c(O)c4c3C2=O)NC(=O)/C(C)=C\C=C\[C@H](C)[C@H](O)[C@@H](C)[C@@H](O)[C@@H](C)[C@H](OC(C)=O)[C@@H]1C.Cl.Cl.Cl.Cl.Cl | > 128 µg/mL | <0.156 | 0.375 | 0.125 µg/mL | 0.25 µg/mL | Dose-dependent effect | 0.75 | 1.25 | <0.375 | 0.75 | Dose-dependent effect | 32 µg/mL | 256 µg/mL | – | – | – | – | – | – | Activity (HepG2): Non-Toxic; fractional inhibitory concentration index (FICI) (Pseudomonas aeruginosa [4]): <0.28; fractional inhibitory concentration index (FICI) (Pseudomonas aeruginosa [6]): <0.13; survival at 96 h [7]: 100%; fold change (FC) (Pseudomonas aeruginosa [8]): 32; fractional inhibitory concentration index (FICI) (Pseudomonas aeruginosa [9]): <0.09; FIC (Pseudomonas aeruginosa [17]): <0.008; fractional inhibitory concentration index (FICI) (Pseudomonas aeruginosa [18]): 0.08 |
| NC[C@H]1O[C@H](O[C@H]2[C@H](O)[C@@H](O[C@H]3O[C@H](CO)[C@@H](O)[C@H](N)[C@H]3O)[C@H](N)C[C@@H]2N)[C@H](N)C[C@@H]1O [TOBRAMYCIN] | – | – | – | – | – | – | – | – | – | – | – | – | – | 0.5 | <=0.5 | 0.5 | 0.5 | 0.5 | 0.5 | MIC (Pseudomonas aeruginosa [25]): 64 µg/mL; FIC (Pseudomonas aeruginosa [28]): 0.5 |
| CO[C@H]1/C=C/O[C@@]2(C)Oc3c(C)c(O)c4c(O)c(c(/C=N/N5CCN(C)CC5)c(O)c4c3C2=O)NC(=O)/C(C)=C\C=C\[C@H](C)[C@H](O)[C@@H](C)[C@@H](O)[C@@H](C)[C@H](OC(C)=O)[C@@H]1C [RIFAMPIN] | – | – | – | – | – | – | – | – | – | – | – | – | – | 0.5 | 0.5 | 0.5 | 0.5 | 0.5 | 0.25 | MIC (Pseudomonas aeruginosa [29]): 32 µg/mL; MIC (Pseudomonas aeruginosa [30]): 2050 µg/mL; MIC (Pseudomonas aeruginosa [31]): 16 µg/mL |
| CO[C@H]1/C=C/O[C@@]2(C)Oc3c(C)c(O)c4c(O)c(c(/C=N/N5CCN(Cc6cn(CCCCCCCCCCCCO[C@@H]7[C@@H](O[C@H]8O[C@H](CO)[C@@H](O)[C@H](N)[C@H]8O)[C@H](N)C[C@H](N)[C@H]7O[C@H]7O[C@H](CN)[C@@H](O)C[C@H]7N)nn6)CC5)c(O)c4c3C2=O)NC(=O)/C(C)=C\C=C\[C@H](C)[C@H](O)[C@@H](C)[C@@H](O)[C@@H](C)[C@H](OC(C)=O)[C@@H]1C.O=C(O)C(F)(F)F.O=C(O)C(F)(F)F.O=C(O)C(F)(F)F.O=C(O)C(F)(F)F.O=C(O)C(F)(F)F | > 128 µg/mL | <0.187 | 0.375 | 0.25 µg/mL | 0.25 µg/mL | Dose-dependent effect | 0.75 | 1.25 | <0.281 | 0.625 | Dose-dependent effect | 64 µg/mL | 256 µg/mL | – | – | – | – | – | – | fold change (FC) (Enterobacter cloacae [32]): 0; fold change (FC) (Klebsiella pneumoniae [33]): 0 |

Reference: ChEMBL document CHEMBL4715829, “Heterodimeric Rifampicin-Tobramycin conjugates break intrinsic resistance of Pseudomonas aeruginosa to doxycycline and chloramphenicol in vitro and in a Galleria mellonella in vivo model” (Eur J Med Chem, 2019)
